# From article PMC7037546, “High Cell Selectivity and Bactericidal Mechanism of Symmetric Peptides Centered on D-Pro–Gly Pairs” (International Journal of Molecular Sciences, 2020)
# Non-standard residues stand in square brackets, D forms with d. Residues, ends and D or L forms follow the SMILES beside them. No end group written: not given here.
# How the values were obtained:
# [1] = test system: Escherichia coli ATCC25922; assay: microbe, parasite or virus in culture; conditions: ATCC25922, 16 h
# Description: (§1) The antimicrobial activity of the designed peptides was examined using the micro-dilution method described previously. The bacteria were cultured for 16 h in MHB at 37 °C, and the microbial suspension was diluted to a final concentration of 10^5 colony-forming units (CFU)/mL. Then, 50 µL of MHB containing different concentrations peptides (0.25–256 µM) was mixed with 50 µL of bacterial solution, and the mixture was added to a 96-well plate. […] The assays were performed three times.
# E. coli K88 = conditions: micro-dilution in MHB, 10^5 CFU/mL, 16 h, OD 492 nm, performed three times
# Description: as §1
# [2] = test system: Enterococcus faecalis ATCC29212; conditions: ATCC29212, 16 h
# Description: as §1
# Gram-negative bacteria = conditions: 16 h
# Description: as §1
# [3] = test system: Klebsiella pneumonia CMCC46117; conditions: CMCC46117, 16 h
# Description: as §1
# [4] = test system: Pseudomonas aeruginosa ATCC27853; conditions: ATCC27853, 16 h
# Description: as §1
# S. aureus ATCC29213 = conditions: ATCC29213, 16 h
# Description: as §1
# [5] = test system: Salmonella Pullorum NCTC5776; conditions: NCTC5776, 16 h
# Description: as §1
# [6] = test system: Staphylococcus aureus ATCC25923; conditions: ATCC25923, 16 h
# Description: as §1
# [7] = test system: methicillin-resistant S. aureus ATCC43300; conditions: ATCC43300, 16 h
# Description: as §1
# Gram-positive bacteria = assay: Geometric mean of MICs and therapeutic index, Gram (+); assay type: cell-based; conditions: geometric mean over the Gram-positive strains of Table 2; 256 μM used when no activity at 128 μM
# Description: as §1
# RAW 264.7 cells = assay: Cytotoxicity, CCK-8 assay; assay type: cell-based, murine; conditions: 64 μM peptide, 16 h, CCK-8, OD 450 nm
# Description: (§2) The cytotoxicity was detected according to a CCK-8 assay as described previously. Briefly, RAW 264.7 and HEK293T cells were placed into 96-well plates at a density of 1.0–2.0 × 10^5, and then cultured for 16 h under conditions of 5% CO2. Then, two-fold diluted peptides in DMEM were added to the plates. After 16 h of culturing, CCK-8 (10%, v/v) was put into each well containing cell culture, and mixtures were cultured for 2 h. The cytotoxicity assay was examined by measuring the OD of the mixtures at 450 nm (Microplate reader, TECAN GENios F129004, Tecan, Salzburg, Austria). The assays were performed three times.
# HEK293T cells = assay: Cytotoxicity, CCK-8 assay; assay type: cell-based, human; conditions: 64 μM peptide, 16 h, CCK-8, OD 450 nm
# Description: as §2
# E. coli ATCC25922 = assay type: cell-based, Escherichia coli; conditions: for MIC after pH treatment, pH 4 / MIC after pH treatment, pH 6 / MIC after pH treatment, pH 8 / MIC after pH treatment, pH 10: ATCC25922, 1 h; for MIC after temperature treatment, 0 °C / MIC after temperature treatment, 37 °C / MIC after temperature treatment, 100 °C / MIC in the presence of FeCl3 / MIC in the presence of KCl / MIC in the presence of MgCl2 / MIC in the presence of NH4Cl / MIC in the presence of NaCl / MIC in the presence of ZnCl2 / MIC, Control / MIC, Control (pH 7): ATCC25922, 16 h
# Description: as §1
# The salt, temperature, and pH sensitivities of designed peptides were determined by MIC assay as described previously. For the salt sensitivity assay, peptides were diluted in deionized water containing different salts, and mixed with E. coli ATCC25922 (10^5 CFU/mL). The final physiological concentrations of different salts were as follows: 150 mM NaCl, 4.5 mM KCl, 6 μM NH4Cl, 1 mM MgCl2, 8 μM ZnCl2, and 4 μM FeCl3. For temperature sensitivity, peptides were cooled on ice for 10 min, and incubated at 37 °C and 100 °C for 30 min. For pH sensitivity, peptides were treated with different pH for 1 h. Briefly, peptides were diluted in deionized water, and the pH of the solution was adjusted to 4.0, 6.0, 8.0, and 10.0 with HCl or NaOH. The subsequent steps were the same as for the MIC measurements. These tests were performed three times.
Molecule,MIC ([1]; Escherichia coli),MIC [1],MIC (E. coli K88),MIC [2],"GM (geometric mean of MICs), Gram (−) (Gram-negative bacteria)",MIC [3],MIC [4],MIC (S. aureus ATCC29213),MIC [5],MIC [6],MIC [7],"GM (geometric mean of MICs), Gram (+) (Gram-positive bacteria)",cell survival rate (RAW 264.7 cells),cell survival rate (HEK293T cells),"MIC after pH treatment, pH 4 (E. coli ATCC25922)","MIC after pH treatment, pH 6 (E. coli ATCC25922)","MIC after pH treatment, pH 8 (E. coli ATCC25922)","MIC after pH treatment, pH 10 (E. coli ATCC25922)","MIC after temperature treatment, 0 °C (E. coli ATCC25922)","MIC after temperature treatment, 37 °C (E. coli ATCC25922)",other results
"O=C(N[C@H](CO)[C@H](O)c1ccc([N+](=O)[O-])cc1)C(Cl)Cl [chloramphenicol, reference compound]",8 µM,–,–,–,–,–,–,–,–,–,–,–,–,–,–,–,–,–,–,–,–
"CO/N=C(\C(=O)N[C@@H]1C(=O)N2C(C(=O)O)=C(COC(C)=O)CS[C@H]12)c1csc(N)n1 [cefotaxime, reference compound]",2 µM,–,–,–,–,–,–,–,–,–,–,–,–,–,–,–,–,–,–,–,–
CC(C)C[C@H](NC(=O)CN)C(=O)N[C@@H](CCCNC(=N)N)C(=O)N[C@@H](CC(C)C)C(=O)N[C@@H](CC(C)C)C(=O)N[C@@H](CCCNC(=N)N)C(=O)N[C@@H](CCCNC(=N)N)C(=O)N[C@@H](CC(C)C)C(=O)N[C@@H](CC(C)C)C(=O)N[C@@H](CCCNC(=N)N)C(=O)N[C@@H](CCCNC(=N)N)C(=O)N[C@@H](CC(C)C)C(=O)N[C@@H](CC(C)C)C(=O)N[C@@H](CCCNC(=N)N)C(=O)N[C@@H](CC(C)C)C(=O)N1CCC[C@@H]1C(N)=O [LRα] (H-GLRLLRRLLRRLLRL[dP]-NH2),–,2 µM,4 µM,16 µM,3 µM,4 µM,4 µM,8 µM,2 µM,4 µM,8 µM,8 µM,less than 10%,less than 10%,2 µM,2 µM,2 µM,4 µM,2 µM,2 µM,"MIC after temperature treatment, 100 °C (E. coli ATCC25922): 2 µM; MIC in the presence of FeCl3 (E. coli ATCC25922): 2 µM; MIC in the presence of KCl (E. coli ATCC25922): 2 µM; MIC in the presence of MgCl2 (E. coli ATCC25922): 2 µM; MIC in the presence of NH4Cl (E. coli ATCC25922): 2 µM; MIC in the presence of NaCl (E. coli ATCC25922): 8 µM; MIC in the presence of ZnCl2 (E. coli ATCC25922): 2 µM; MIC, Control (E. coli ATCC25922): 2 µM; MIC, Control (pH 7) (E. coli ATCC25922): 2 µM"
N=C(N)NCCC[C@H](NC(=O)CNC(=O)[C@H]1CCCN1C(=O)[C@H](CCCNC(=N)N)NC(=O)[C@H](CCCNC(=N)N)NC(=O)[C@H](Cc1ccccc1)NC(=O)[C@H](Cc1ccccc1)NC(=O)[C@H](CCCNC(=N)N)NC(=O)[C@H](Cc1ccccc1)NC(=O)[C@@H](N)Cc1ccccc1)C(=O)N[C@@H](CCCNC(=N)N)C(=O)N[C@@H](Cc1ccccc1)C(=O)N[C@@H](Cc1ccccc1)C(=O)N[C@@H](CCCNC(=N)N)C(=O)N[C@@H](Cc1ccccc1)C(=O)N[C@@H](Cc1ccccc1)C(N)=O [FRpG] (H-FFRFFRR[dP]GRRFFRFF-NH2),–,8 µM,8 µM,32 µM,13.9 µM,16 µM,32 µM,16 µM,16 µM,16 µM,32 µM,22.6 µM,78%,85%,16 µM,8 µM,8 µM,32 µM,8 µM,8 µM,"MIC after temperature treatment, 100 °C (E. coli ATCC25922): 8 µM; MIC in the presence of FeCl3 (E. coli ATCC25922): 8 µM; MIC in the presence of KCl (E. coli ATCC25922): 8 µM; MIC in the presence of MgCl2 (E. coli ATCC25922): 8 µM; MIC in the presence of NH4Cl (E. coli ATCC25922): 8 µM; MIC in the presence of NaCl (E. coli ATCC25922): 32 µM; MIC in the presence of ZnCl2 (E. coli ATCC25922): 8 µM; MIC, Control (E. coli ATCC25922): 8 µM; MIC, Control (pH 7) (E. coli ATCC25922): 8 µM"
IIRIIRRGGRRIIRII-NH2 [IRGG],–,8 µM,16 µM,>128 µM,21.1 µM,32 µM,32 µM,>128 µM,32 µM,>128 µM,>128 µM,256 µM,95%,96%,16 µM,8 µM,8 µM,16 µM,8 µM,8 µM,"MIC after temperature treatment, 100 °C (E. coli ATCC25922): 8 µM; MIC in the presence of FeCl3 (E. coli ATCC25922): 8 µM; MIC in the presence of KCl (E. coli ATCC25922): 8 µM; MIC in the presence of MgCl2 (E. coli ATCC25922): 16 µM; MIC in the presence of NH4Cl (E. coli ATCC25922): 8 µM; MIC in the presence of NaCl (E. coli ATCC25922): 64 µM; MIC in the presence of ZnCl2 (E. coli ATCC25922): 16 µM; MIC, Control (E. coli ATCC25922): 8 µM; MIC, Control (pH 7) (E. coli ATCC25922): 8 µM"
CC[C@H](C)[C@H](N)C(=O)N[C@H](C(=O)N[C@@H](CCCNC(=N)N)C(=O)N[C@H](C(=O)N[C@H](C(=O)N[C@@H](CCCNC(=N)N)C(=O)N[C@@H](CCCNC(=N)N)C(=O)N1CCC[C@@H]1C(=O)NCC(=O)N[C@@H](CCCNC(=N)N)C(=O)N[C@@H](CCCNC(=N)N)C(=O)N[C@H](C(=O)N[C@H](C(=O)N[C@@H](CCCNC(=N)N)C(=O)N[C@H](C(=O)N[C@H](C(N)=O)[C@@H](C)CC)[C@@H](C)CC)[C@@H](C)CC)[C@@H](C)CC)[C@@H](C)CC)[C@@H](C)CC)[C@@H](C)CC [IRpG] (H-IIRIIRR[dP]GRRIIRII-NH2),–,4 µM,16 µM,>128 µM,16 µM,32 µM,32 µM,>128 µM,16 µM,>128 µM,>128 µM,256 µM,98%,98%,16 µM,4 µM,8 µM,16 µM,4 µM,4 µM,"MIC after temperature treatment, 100 °C (E. coli ATCC25922): 4 µM; MIC in the presence of FeCl3 (E. coli ATCC25922): 4 µM; MIC in the presence of KCl (E. coli ATCC25922): 4 µM; MIC in the presence of MgCl2 (E. coli ATCC25922): 8 µM; MIC in the presence of NH4Cl (E. coli ATCC25922): 4 µM; MIC in the presence of NaCl (E. coli ATCC25922): 32 µM; MIC in the presence of ZnCl2 (E. coli ATCC25922): 4 µM; MIC, Control (E. coli ATCC25922): 4 µM; MIC, Control (pH 7) (E. coli ATCC25922): 4 µM"
"O=C(O)c1cn(C2CC2)c2cc(N3CCNCC3)c(F)cc2c1=O [ciprofloxacin, reference compound]",8 µM,–,–,–,–,–,–,–,–,–,–,–,–,–,–,–,–,–,–,–,–
"[H]/N=C(/N)N[C@H]1[C@H](O)[C@@H](O)[C@H](O[C@@H]2O[C@@H](C)[C@](O)(C=O)[C@H]2O[C@@H]2O[C@@H](CO)[C@H](O)[C@@H](O)[C@@H]2NC)[C@@H](N/C(N)=N\[H])[C@@H]1O [streptomycin, reference compound]",2 µM,–,–,–,–,–,–,–,–,–,–,–,–,–,–,–,–,–,–,–,–
